Assay results published in ChEMBL document CHEMBL2346597, “Use of core modification in the discovery of CC214-2, an orally available, selective inhibitor of mTOR kinase” (Bioorg Med Chem Lett, 2013).
Active and inactive are the calls of the source. The rule behind the calls is not given here.

How the values were obtained:
[1] = Inhibition of mTORC2 in human PC3 cells assessed as inhibition of AKTS473 phosphorylation after 1 hr by sandwich immunoassay; assay type: cell-based; conditions: PC-3, 1 h
mTORC1 = mTORC1 (Homo sapiens, UniProt P42345); assay: Inhibition of mTORC1 in human PC3 cells assessed as inhibition of S6 phosphorylation after 1 hr by sandwich immunoassay; assay type: cell-based, PC-3
[2] = target: Phosphatidylinositol 4,5-bisphosphate 3-kinase catalytic subunit alpha isoform (Homo sapiens, UniProt P42336); assay: Inhibition of PI3Kalpha (unknown origin) by mobility shift assay
Sequence of Phosphatidylinositol 4,5-bisphosphate 3-kinase catalytic subunit alpha isoform (P42336 whole entry, canonical isoform): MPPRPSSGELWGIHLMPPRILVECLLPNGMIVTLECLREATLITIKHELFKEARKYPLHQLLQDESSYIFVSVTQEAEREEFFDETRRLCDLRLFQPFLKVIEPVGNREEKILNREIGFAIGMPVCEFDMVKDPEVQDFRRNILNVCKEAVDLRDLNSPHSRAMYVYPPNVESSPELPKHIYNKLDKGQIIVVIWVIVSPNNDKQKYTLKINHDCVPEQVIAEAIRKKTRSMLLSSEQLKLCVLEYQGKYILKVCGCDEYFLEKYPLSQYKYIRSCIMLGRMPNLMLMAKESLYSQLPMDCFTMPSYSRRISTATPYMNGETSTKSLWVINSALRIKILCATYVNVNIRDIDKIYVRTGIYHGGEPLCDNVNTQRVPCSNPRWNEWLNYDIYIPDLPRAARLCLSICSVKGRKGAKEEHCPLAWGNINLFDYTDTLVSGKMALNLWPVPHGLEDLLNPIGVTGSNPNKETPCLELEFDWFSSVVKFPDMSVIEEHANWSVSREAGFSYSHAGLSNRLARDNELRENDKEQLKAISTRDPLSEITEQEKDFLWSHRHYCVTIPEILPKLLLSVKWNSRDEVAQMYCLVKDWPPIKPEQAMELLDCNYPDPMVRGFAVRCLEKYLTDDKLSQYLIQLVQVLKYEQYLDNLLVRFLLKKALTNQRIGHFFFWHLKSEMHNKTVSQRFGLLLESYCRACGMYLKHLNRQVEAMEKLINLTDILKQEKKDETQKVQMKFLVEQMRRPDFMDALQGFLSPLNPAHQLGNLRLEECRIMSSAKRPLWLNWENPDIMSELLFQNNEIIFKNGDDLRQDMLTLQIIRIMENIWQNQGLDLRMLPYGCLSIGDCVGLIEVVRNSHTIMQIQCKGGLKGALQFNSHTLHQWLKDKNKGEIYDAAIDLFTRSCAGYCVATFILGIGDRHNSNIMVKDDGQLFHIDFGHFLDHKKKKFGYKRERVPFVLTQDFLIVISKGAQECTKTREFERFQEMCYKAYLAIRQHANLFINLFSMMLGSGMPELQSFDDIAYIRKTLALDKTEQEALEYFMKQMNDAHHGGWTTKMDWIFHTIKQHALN

PC-3 [3] = assay: cells; conditions: Homo sapiens, PC-3, 72 h
[4] = Oral bioavailability in rat at 5 mg/kg; assay type: ADME, organism-based; conditions: in vivo
[5] = Drug uptake in tumor of CB17 SCID mouse xenografted with human PC3 cells at 30 mg/kg, po qd at 24 hrs; assay type: ADME, organism-based, Neoplasm, PC-3; design: dose 30 mg/kg, route oral; conditions: read-out: Drug uptake
[6] = Drug uptake in tumor of CB17 SCID mouse xenografted with human PC3 cells at 30 mg/kg, po qd at 8 hrs; assay type: ADME, organism-based, Neoplasm, PC-3; design: dose 30 mg/kg, route oral; conditions: read-out: Drug uptake
[7] = Drug uptake in tumor of CB17 SCID mouse xenografted with human PC3 cells at 30 mg/kg, po qd at 2 hrs; assay type: ADME, organism-based, Neoplasm, PC-3; design: dose 30 mg/kg, route oral; conditions: read-out: Drug uptake
[8] = Drug uptake in tumor of CB17 SCID mouse xenografted with human PC3 cells at 30 mg/kg, po qd at 4 hrs; assay type: ADME, organism-based, Neoplasm, PC-3; design: dose 30 mg/kg, route oral; conditions: read-out: Drug uptake
Plasma [9] = assay: Free plasma concentration in CB17 SCID mouse xenografted with human PC3 cells at 30 mg/kg, po qd at 8 hrs; assay type: ADME, organism-based, PC-3; design: dose 30 mg/kg, route oral; conditions: in vivo
Plasma [10] = assay: Free plasma concentration in CB17 SCID mouse xenografted with human PC3 cells at 30 mg/kg, po qd at 24 hrs; assay type: ADME, organism-based, PC-3; design: dose 30 mg/kg, route oral; conditions: in vivo
Plasma [11] = assay: Free plasma concentration in CB17 SCID mouse xenografted with human PC3 cells at 30 mg/kg, po qd at 4 hrs; assay type: ADME, organism-based, PC-3; design: dose 30 mg/kg, route oral; conditions: in vivo
Plasma [12] = assay: Free plasma concentration in CB17 SCID mouse xenografted with human PC3 cells at 30 mg/kg, po qd at 2 hrs; assay type: ADME, organism-based, PC-3; design: dose 30 mg/kg, route oral; conditions: in vivo
[13] = Plasma concentration in CB17 SCID mouse xenografted with human PC3 cells at 30 mg/kg, po qd at 24 hrs; assay type: ADME, organism-based, PC-3; design: dose 30 mg/kg, route oral
[14] = Plasma concentration in CB17 SCID mouse xenografted with human PC3 cells at 30 mg/kg, po qd at 4 hrs; assay type: ADME, organism-based, PC-3; design: dose 30 mg/kg, route oral
[15] = Plasma concentration in CB17 SCID mouse xenografted with human PC3 cells at 30 mg/kg, po qd at 8 hrs; assay type: ADME, organism-based, PC-3; design: dose 30 mg/kg, route oral
[16] = Plasma concentration in CB17 SCID mouse xenografted with human PC3 cells at 30 mg/kg, po qd at 2 hrs; assay type: ADME, organism-based, PC-3; design: dose 30 mg/kg, route oral
[17] = Tmax in rat at 5 mg/kg, po; assay type: ADME, organism-based; design: dose 5 mg/kg, route oral; conditions: in vivo
[18] = AUC (0 to infinity) in rat at 5 mg/kg, po; assay type: ADME, organism-based; design: time infinity, dose 5 mg/kg, route oral; conditions: plasma
[19] = Cmax in rat at 5 mg/kg, po; assay type: ADME, organism-based; design: dose 5 mg/kg, route oral; conditions: in vivo
[20] = Mean residence time in rat at 2 mg/kg, iv; assay type: ADME, organism-based; design: dose 2 mg/kg, route intravenous; conditions: in vivo
[21] = AUC (0 to infinity) in rat at 2 mg/kg, iv; assay type: ADME, organism-based; design: time infinity, dose 2 mg/kg, route intravenous; conditions: plasma
[22] = Volume of distribution at steady state in rat at 2 mg/kg, iv; assay type: ADME, organism-based; design: dose 2 mg/kg, route intravenous; conditions: in vivo, read-out: Vdss
Mus musculus [23] = assay: In vivo inhibition of mTORC1 in human PC3 cells xenografted in CB17 SCID mouse assessed as inhibition of S6 phosphorylation at 30 mg/kg, po qd measured at 24 hrs relative to vehicle-treated control; assay type: functional; conditions: CB17, PC-3, 24 h
Mus musculus [24] = assay: In vivo inhibition of mTORC1 in human PC3 cells xenografted in CB17 SCID mouse assessed as inhibition of S6 phosphorylation at 30 mg/kg, po qd after 2 to 8 hrs relative to vehicle-treated control; assay type: functional; conditions: CB17, PC-3
[25] = Plasma protein binding in CB17 SCID mouse xenografted with human PC3 cells at 30 mg/kg, po qd after 24 hrs; assay type: ADME, organism-based, PC-3; design: dose 30 mg/kg, route oral; conditions: read-out: PPB (converted)
Mus musculus [26] = assay: Toxicity in CB17 SCID mouse xenografted with human PC3 cells at 10 to 50 mg/kg, po qd administered on day 11 post tumor implantation measured after 32 days; assay type: organism-based, PC-3; design: dose 10-50 mg/kg, route oral; conditions: in vivo
PC-3 [27] = assay: Antitumor activity against human PC3 cells xenografted in CB17 SCID mouse assessed as tumor growth inhibition at 50 mg/kg, po qd administered on day 11 post tumor implantation measured after 32 days relative to vehicle-treated control; assay type: functional; conditions: read-out: TGI
PC-3 [28] = assay: Antitumor activity against human PC3 cells xenografted in CB17 SCID mouse assessed as tumor growth inhibition at 25 mg/kg, po qd administered on day 11 post tumor implantation measured after 32 days relative to vehicle-treated control; assay type: functional; conditions: read-out: TGI
PC-3 [29] = assay: Antitumor activity against human PC3 cells xenografted in CB17 SCID mouse assessed as tumor growth inhibition at 10 mg/kg, po qd administered on day 11 post tumor implantation measured after 32 days relative to vehicle-treated control; assay type: functional; conditions: read-out: TGI
[30] = Clearance in rat at 2 mg/kg, iv; assay type: ADME, organism-based; design: dose 2 mg/kg, route intravenous; conditions: in vivo
PC-3 [31] = conditions: Homo sapiens
PC-3 [32] = conditions: Homo sapiens; remark: listed apart in the source
PC-3 [33] = conditions: Homo sapiens; remark: listed apart in the source
PC-3 [34] = conditions: Homo sapiens; remark: listed apart in the source
Mus musculus [35] = assay: In vivo inhibition of mTORC2 in human PC3 cells xenografted in CB17 SCID mouse assessed as inhibition of AKTS473 phosphorylation at 30 mg/kg, po qd after 2 to 8 hrs relative to vehicle-treated control; conditions: CB17, PC-3, po
Mus musculus [36] = assay: In vivo inhibition of mTORC2 in human PC3 cells xenografted in CB17 SCID mouse assessed as inhibition of AKTS473 phosphorylation at 30 mg/kg, po qd measured at 24 hrs relative to vehicle-treated control; conditions: CB17, PC-3, po
[37] = target: Insulin receptor (Homo sapiens) (UniProt P06213); assay: Inhibition of IRK1 (unknown origin) assessed as remaining activity at 10 uM relative to control
Sequence of Insulin receptor (Homo sapiens) (P06213 whole entry, looked up): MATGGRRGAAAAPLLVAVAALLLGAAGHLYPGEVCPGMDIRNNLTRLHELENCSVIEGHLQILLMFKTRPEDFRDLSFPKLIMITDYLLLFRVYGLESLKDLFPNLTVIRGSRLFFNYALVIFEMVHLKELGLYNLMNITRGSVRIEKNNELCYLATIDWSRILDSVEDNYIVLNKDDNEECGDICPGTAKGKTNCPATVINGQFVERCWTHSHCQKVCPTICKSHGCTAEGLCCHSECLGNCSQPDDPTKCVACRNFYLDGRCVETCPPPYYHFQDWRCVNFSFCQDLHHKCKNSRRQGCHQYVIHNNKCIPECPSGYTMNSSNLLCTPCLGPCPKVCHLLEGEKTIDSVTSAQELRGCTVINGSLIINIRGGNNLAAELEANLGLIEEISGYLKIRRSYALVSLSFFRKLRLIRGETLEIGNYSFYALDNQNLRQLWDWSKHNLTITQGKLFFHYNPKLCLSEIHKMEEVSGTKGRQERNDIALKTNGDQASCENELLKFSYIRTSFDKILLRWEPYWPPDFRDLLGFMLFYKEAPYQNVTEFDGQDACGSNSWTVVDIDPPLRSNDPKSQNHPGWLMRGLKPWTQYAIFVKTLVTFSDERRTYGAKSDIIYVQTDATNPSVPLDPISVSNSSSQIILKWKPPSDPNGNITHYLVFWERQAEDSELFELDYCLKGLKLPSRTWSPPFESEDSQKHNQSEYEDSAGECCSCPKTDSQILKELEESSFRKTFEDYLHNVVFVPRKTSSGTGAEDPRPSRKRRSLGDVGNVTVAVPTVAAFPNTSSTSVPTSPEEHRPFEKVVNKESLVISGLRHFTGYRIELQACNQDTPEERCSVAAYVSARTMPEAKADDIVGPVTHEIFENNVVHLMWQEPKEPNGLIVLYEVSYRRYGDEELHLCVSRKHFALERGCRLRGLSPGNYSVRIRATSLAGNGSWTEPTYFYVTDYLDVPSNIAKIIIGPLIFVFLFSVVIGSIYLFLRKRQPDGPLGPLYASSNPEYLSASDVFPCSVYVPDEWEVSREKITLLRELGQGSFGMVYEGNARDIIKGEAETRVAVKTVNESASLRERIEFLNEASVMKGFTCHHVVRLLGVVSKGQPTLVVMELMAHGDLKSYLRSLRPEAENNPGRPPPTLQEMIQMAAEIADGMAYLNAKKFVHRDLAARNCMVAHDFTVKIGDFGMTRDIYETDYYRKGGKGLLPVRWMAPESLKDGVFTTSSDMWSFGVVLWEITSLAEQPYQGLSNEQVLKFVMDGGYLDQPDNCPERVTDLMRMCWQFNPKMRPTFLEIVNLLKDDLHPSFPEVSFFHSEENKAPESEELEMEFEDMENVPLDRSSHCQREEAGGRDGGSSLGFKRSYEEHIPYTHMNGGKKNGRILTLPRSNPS

CC(C)(O)c1ccc(-c2cnc3[nH]c(=O)n(CC4CCOCC4)c3n2)cn1
IC50 [1]: 2550 nM
IC50 (mTORC1): 2410 nM
IC50 [2]: > 30000 nM
IC50 (PC-3 [3]): 4180 nM

O=C1CN(CCC2CCOCC2)c2nc(-c3ccc(-c4nc[nH]n4)cc3)cnc2N1
bioavailability [4]: 0%
IC50 (PC-3 [3]): 148 nM

CC(C)(O)c1ccc(-c2cnc3c(n2)N(CC2CCOCC2)CC(=O)N3)cn1
concentration at 24 h [5]: 190 nM
concentration at 8 h [6]: 1760 nM
concentration at 2 h [7]: 4100 nM
concentration at 4 h [8]: 2870 nM
Cp(f) (Plasma [9]): 850 nM
Cp(f) (Plasma [10]): 70 nM
Cp(f) (Plasma [11]): 1860 nM
Cp(f) (Plasma [12]): 2390 nM
concentration at 24 h [13]: 190 nM
concentration at 4 h [14]: 5320 nM
concentration at 8 h [15]: 2420 nM
concentration at 2 h [16]: 6830 nM
Tmax [17]: 1.2 h
AUC(0-inf) [18]: 28 µM·h
Cmax [19]: 3300 nM
MRT [20]: 2.7 h
AUC(0-inf) [21]: 10.8 µM·h
Vd [22]: 1.3 L/kg
inhibition in vivo at 30 mg/kg (Mus musculus [23]): 43%
inhibition in vivo at 30 mg/kg (Mus musculus [24]): 87%
fraction unbound at 24 h [25]: 0.35
Activity (Mus musculus [26]): Non-toxic
inhibition in vivo at 50 mg/kg (PC-3 [27]): 84%
inhibition in vivo at 25 mg/kg (PC-3 [28]): 63%
inhibition in vivo at 10 mg/kg (PC-3 [29]): 18%
bioavailability [4]: 100%
clearance [30]: 8.1 mL/min/kg
IC50 [2]: > 30000 nM
TGI (PC-3 [31]): Dose-dependent effect
TGI (PC-3 [32]): Active
TGI (PC-3 [33]): Active
TGI (PC-3 [34]): Active
inhibition in vivo at 30 mg/kg (Mus musculus [35]): 53%
inhibition in vivo at 30 mg/kg (Mus musculus [36]): 28%

O=c1[nH]c2ncc(-c3ccc(-c4nc[nH]n4)cc3)nc2n1CCC1CCOCC1
bioavailability [4]: 0.85%
IC50 [1]: 18 nM
IC50 (mTORC1): 40 nM
IC50 (PC-3 [3]): 224 nM
activity at 10 µM [37]: 93%
